US8865653B2, “Method of treatment for immunogenic treatment resistant cancer” (Institut Gustave Roussy, priority 2010, dated 2014)

What was measured:
CT26 colon cancer = experiment: Anthracycline chemotherapy of established CT26 colon cancer; format: in vivo, mice; settings: single intratumoral injection
Experimental: 0.8 million MCA205 or CT26 or TS/A tumor cells were inoculated subcutaneously near the thigh into C57Bl/6 (H-2^b) or BALB/c (H-2^d) mice. Anthracyclines-based chemotherapy was performed in MCA205 and CT26 models by intratumoral injecting DX (2 mM, […]) when tumors reached the size 25-40 mm^2. Radiotherapy was performed by local X-ray irradiation (10 Gy, RT250, Phillips) at the unshielded tumor area when TS/A tumor reached the size 40-60 mm^2.

MCA205 fibrosarcoma = experiment: Chemotherapy and Dendrophilin treatment of established MCA205 tumors; format: in vivo, mice; settings: doxorubicin intratumorally
Experimental: WT or loss-of-function mice were injected in the right flank with 1×10^6 of EL4 or CT26 or MCA205 cells. Mice were then randomly assigned into treatment groups of 4-6 mice each. […] Two and/or four days after chemo treatment, mice were treated with Dendrophilin or LPS (2 μg in 100 μl NaCl per mouse i.v or i.t). […] Tumor growths were monitored every 3-4 days using a caliper.

MCA 205 tumors = experiment: qRT-PCR of tumor gene expression after Doxorubicin; format: in vivo, mice; settings: 2 days after treatment; Mavs, Irf3, Irf1 and Tnf unchanged
Experimental: 0.8 Million of MCA 205 has been subcutaneously implanted to C57Bl6 mice.
Tumor samples were freshly collected, briefly washed in RPMI1640 media (GIBCO). Tissue samples were cut to a maximum thickness in any one dimension of 0.5 cm, placed in 5 volumes of RNAlater® (SIGMA ALDRICH). Samples can be stored at room temperature if processed for RNA extraction on the same day or stored at 4° C. for less than 1 month. RNA extraction from each tumor (up to 30 mg/sample) was performed using RNeasy Mini Kit (QIAGEN) following the instructions.
Add 20 μL1 of Master mix (dN6 (3 ng/μl), dNTP (1 mM), Buffer (1×), RNAsin (40 U) Superscript® III RT (200 U)) into the processed mRNA sample. Mix was incubated at 50° C. for 1 h and then inactivated at 75° C. for 15 min.
cDNA of each sample was diluted at 1:3 with DNase free water. For each sample, 4 μl of primer and probe TAQMAN (2×), 10 μl of assay mix (20×), 5 μl diluted cDNA were added. qRT-PCR was performed (45 cycles with standard PCR program using StepOnePlus™ system (Applied Biosystems). PPIA was used as endogenous control gene to normalize gene expression for data analysis.

MCA205 tumors = experiment: Gene expression assays in tumors (TaqMan RT-PCR) 8 days after DX; format: in vivo, mice; settings: 8 days post-treatment, quantitative RT-PCR
Experimental: Whole RNA was extracted using RNeasy Mini Kit, QIAGEN from pieces of tumor homogenates. 5 μg of RNA from each sample were reverse-transcribed using Quantitect Reverse Transcription Kit (QIAGEN). Gene expression assays were performed with TaqMan® 96 well Plates customized to test cytokines, chemokines as well as transcription factors using StepOnePlus™ Real-Time PCR System. PPIA was chosen as the endogenous control to perform normalization between different samples.

U2OS cells = experiment: US Drug library screen: CRT-GFP, HMGB1-GFP, quinacrine; settings: 1 μM, 4 h / 24 h / 16 h
[1] = test system: tumor infiltrating lymphocytes (TILs) of MCA205 tumors; experiment: Tumor dissection and flow cytometry of TILs (IFN-γ, IL-17); format: in vivo, mice
Experimental: Tumor burdens were carefully removed, cut into small pieces with scissors within digesting buffer (400 U/ml Collagenase IV and 150 U/ml DNase I in RPMI1640) and incubated for 30 min at 37° C. Single cell suspension was obtained by grinding the digested tissue and filtering through 70 μM cell strainer. […] LIVE/DEAD Fixable Dead Cell Stain Kit was used to distinguish live and dead cells. For intracellular staining, freshly isolated cells were treated with, 50 ng/ml PMA, 1 μg/ml ionomycin and Golgi-stop (BD Pharmingen), 4 hrs, 37° C. in RPMI containing 2% mouse serum (Janvier, France). Cells were then washed with PBS and stained with anti-IFN-γ (PE-cy7) and anti-IL-17 (PE) using BD Cytofix/Cytoperm™ Kit following the instructions.

COc1cccc2c1C(=O)c1c(O)c3c(c(O)c1C2=O)C[C@@](O)(C(=O)CO)C[C@@H]3O[C@H]1C[C@H](N)[C@H](O)[C@H](C)O1 [DX, doxorubicin]
tumor growth (CT26 colon cancer): significantly retarded tumor growth
antitumor effects of chemotherapy alone (MCA205 fibrosarcoma): only mild effects
genes involved in viral recognition and anti-viral immune responses, RT-PCR (MCA 205 tumors): specifically up-regulated
Eomes, Tbx21 (T-bet) and IFN-γ expression increase, DX versus PBS-treated tumors (MCA205 tumors): 4-5 fold
rank in screen for exposing CRT and emitting HMGB1 and ATP (U2OS cells): most potent in exposing CRT, and emitting HMGB1 and ATP
increase in the proportions of IFN-γ and IL-17 producing TILs ([1]; DX compared with PBS, flow cytometry, day 8): 3 fold
IFN-γ production by CD8+ and CD4+ TILs and IL-17 production by γδ TILs ([1]; MCA205, post-chemotherapy): substantially enhanced
